Measurements taken from ChEMBL document CHEMBL5678812, “Inhibitors of p21-activated kinases (PAKs)” (J Med Chem, 2015).

Key:
[1] = molecular target: Serine/threonine-protein kinase pim-2 (Homo sapiens) (UniProt Q9P1W9); experiment: Inhibition of PIM2 (unknown origin) at 0.1 uM relative to control
[2] = molecular target: Serine/threonine-protein kinase PAK 3 (Homo sapiens, UniProt O75914); experiment: Inhibition of PAK3 (unknown origin) at 0.1 uM relative to control
[3] = molecular target: Casein kinase I isoform gamma-1 (Homo sapiens) (UniProt Q9HCP0); experiment: Inhibition of CK1gamma1 (unknown origin) at 0.1 uM relative to control
[4] = molecular target: Serine/threonine-protein kinase mTOR (Homo sapiens) (UniProt P42345); experiment: Inhibition of mTOR (unknown origin) at 0.1 uM relative to control
[5] = molecular target: Rho-associated protein kinase 1 (Homo sapiens) (UniProt Q13464); experiment: Inhibition of ROCK1 (unknown origin) at 0.1 uM relative to control
[6] = molecular target: Insulin-like growth factor 1 receptor (Homo sapiens) (UniProt P08069); experiment: Inhibition of IGF1R (unknown origin) at 0.1 uM relative to control
[7] = molecular target: Tyrosine-protein kinase SYK (Homo sapiens) (UniProt P43405); experiment: Inhibition of Syk (unknown origin) at 0.1 uM relative to control
[8] = molecular target: RAC-alpha serine/threonine-protein kinase (Homo sapiens) (UniProt P31749); experiment: Inhibition of AKT1 (unknown origin) at 0.1 uM relative to control
[9] = molecular target: Interleukin-1 receptor-associated kinase 4 (Homo sapiens) (UniProt Q9NWZ3); experiment: Inhibition of IRAK4 (unknown origin) at 0.1 uM relative to control
[10] = molecular target: Tyrosine-protein kinase Lyn (Homo sapiens) (UniProt P07948); experiment: Inhibition of Lyn (unknown origin) at 0.1 uM relative to control
[11] = molecular target: Dual specificity protein kinase CLK2 (Homo sapiens) (UniProt P49760); experiment: Inhibition of CLK2 (unknown origin) at 0.1 uM relative to control
[12] = molecular target: Casein kinase I isoform delta (Homo sapiens) (UniProt P48730); experiment: Inhibition of CK1delta (unknown origin) at 0.1 uM relative to control
[13] = molecular target: Tyrosine-protein kinase BTK (Homo sapiens) (UniProt Q06187); experiment: Inhibition of BTK (unknown origin) at 0.1 uM relative to control
[14] = molecular target: Ephrin type-A receptor 8 (Homo sapiens) (UniProt P29322); experiment: Inhibition of EphA8 (unknown origin) at 0.1 uM relative to control
[15] = molecular target: Mitogen-activated protein kinase 8 (Homo sapiens) (UniProt P45983); experiment: Inhibition of JNK1alpha1 (unknown origin) at 0.1 uM relative to control
[16] = molecular target: RAC-beta serine/threonine-protein kinase (Homo sapiens) (UniProt P31751); experiment: Inhibition of AKT2 (unknown origin) at 0.1 uM relative to control
[17] = molecular target: Dual specificity tyrosine-phosphorylation-regulated kinase 1A (Homo sapiens) (UniProt Q13627); experiment: Inhibition of DYRK1A (unknown origin) at 0.1 uM relative to control
[18] = molecular target: Calcium/calmodulin-dependent protein kinase type II subunit beta (Homo sapiens) (UniProt Q13554); experiment: Inhibition of CaMKIIbeta (unknown origin) at 0.1 uM relative to control
[19] = molecular target: Vascular endothelial growth factor receptor 1 (Homo sapiens) (UniProt P17948); experiment: Inhibition of Flt1 (unknown origin) at 0.1 uM relative to control
[20] = molecular target: Tyrosine-protein kinase receptor UFO (Homo sapiens) (UniProt P30530); experiment: Inhibition of Axl (unknown origin) at 0.1 uM relative to control
[21] = molecular target: Homeodomain-interacting protein kinase 2 (Homo sapiens) (UniProt Q9H2X6); experiment: Inhibition of HIPK2 (unknown origin) at 0.1 uM relative to control
[22] = molecular target: G protein-coupled receptor kinase 5 (Homo sapiens) (UniProt P34947); experiment: Inhibition of GRK5 (unknown origin) at 0.1 uM relative to control
[23] = molecular target: MAP kinase-activated protein kinase 3 (Homo sapiens) (UniProt Q16644); experiment: Inhibition of MAPKAPK3 (unknown origin) at 0.1 uM relative to control
[24] = molecular target: Calcium/calmodulin-dependent protein kinase type IV (Homo sapiens) (UniProt Q16566); experiment: Inhibition of CamKIV (unknown origin) at 0.1 uM relative to control
[25] = molecular target: Tyrosine-protein kinase CSK (Homo sapiens) (UniProt P41240); experiment: Inhibition of CSK (unknown origin) at 0.1 uM relative to control
[26] = molecular target: Serine/threonine-protein kinase Sgk1 (Homo sapiens) (UniProt O00141); experiment: Inhibition of SGK1 (unknown origin) at 0.1 uM relative to control
[27] = molecular target: Serine/threonine-protein kinase Nek6 (Homo sapiens) (UniProt Q9HC98); experiment: Inhibition of NEK6 (unknown origin) at 0.1 uM relative to control
[28] = molecular target: Mitogen-activated protein kinase 12 (Homo sapiens) (UniProt P53778); experiment: Inhibition of p38gamma (unknown origin) at 0.1 uM relative to control
[29] = molecular target: Receptor tyrosine-protein kinase erbB-2 (Homo sapiens) (UniProt P04626); experiment: Inhibition of ErbB2 (unknown origin) at 0.1 uM relative to control
[30] = molecular target: Muscle, skeletal receptor tyrosine-protein kinase (Homo sapiens) (UniProt O15146); experiment: Inhibition of MUSK (unknown origin) at 0.1 uM relative to control
[31] = molecular target: Dual specificity tyrosine-phosphorylation-regulated kinase 4 (Homo sapiens) (UniProt Q9NR20); experiment: Inhibition of DYRK4 (unknown origin) at 0.1 uM relative to control
[32] = molecular target: Tyrosine-protein kinase receptor TYRO3 (Homo sapiens) (UniProt Q06418); experiment: Inhibition of Rse (unknown origin) at 0.1 uM relative to control
[33] = molecular target: Beta-adrenergic receptor kinase 1 (Homo sapiens) (UniProt P25098); experiment: Inhibition of GRK2 (unknown origin) at 0.1 uM relative to control
[34] = molecular target: Tyrosine-protein kinase JAK2 (Homo sapiens) (UniProt O60674); experiment: Inhibition of JAK2 (unknown origin) at 0.1 uM relative to control
[35] = molecular target: SRSF protein kinase 3 (Homo sapiens) (UniProt Q9UPE1); experiment: Inhibition of MSSK1 (unknown origin) at 0.1 uM relative to control
[36] = molecular target: Tyrosine-protein kinase Lyn (Homo sapiens) (UniProt P07948); experiment: Inhibition of LynB (unknown origin) at 0.1 uM relative to control
[37] = molecular target: Serine/threonine-protein kinase NLK (Homo sapiens) (UniProt Q9UBE8); experiment: Inhibition of NLK (unknown origin) at 0.1 uM relative to control
[38] = molecular target: Serine/threonine-protein kinase Chk2 (Homo sapiens) (UniProt O96017); experiment: Inhibition of CHK2 (unknown origin) at 0.1 uM relative to control
[39] = molecular target: Tyrosine-protein kinase Fes/Fps (Homo sapiens) (UniProt P07332); experiment: Inhibition of Fes (unknown origin) at 0.1 uM relative to control

RAC-alpha serine/threonine-protein kinase (Homo sapiens), sequence (P31749 whole entry): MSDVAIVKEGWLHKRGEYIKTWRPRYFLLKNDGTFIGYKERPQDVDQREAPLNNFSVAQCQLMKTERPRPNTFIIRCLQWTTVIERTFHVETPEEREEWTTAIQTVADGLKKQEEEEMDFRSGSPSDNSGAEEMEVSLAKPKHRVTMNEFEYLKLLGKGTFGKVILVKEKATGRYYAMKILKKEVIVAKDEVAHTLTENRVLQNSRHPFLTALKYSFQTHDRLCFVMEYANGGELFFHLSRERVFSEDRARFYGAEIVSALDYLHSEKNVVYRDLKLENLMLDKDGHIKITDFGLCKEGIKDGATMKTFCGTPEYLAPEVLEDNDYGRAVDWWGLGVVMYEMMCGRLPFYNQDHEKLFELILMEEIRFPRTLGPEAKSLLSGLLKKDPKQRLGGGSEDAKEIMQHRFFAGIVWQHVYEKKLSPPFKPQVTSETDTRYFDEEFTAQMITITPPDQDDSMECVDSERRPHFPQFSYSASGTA
Insulin-like growth factor 1 receptor (Homo sapiens), sequence (P08069 31-736 limits assumed): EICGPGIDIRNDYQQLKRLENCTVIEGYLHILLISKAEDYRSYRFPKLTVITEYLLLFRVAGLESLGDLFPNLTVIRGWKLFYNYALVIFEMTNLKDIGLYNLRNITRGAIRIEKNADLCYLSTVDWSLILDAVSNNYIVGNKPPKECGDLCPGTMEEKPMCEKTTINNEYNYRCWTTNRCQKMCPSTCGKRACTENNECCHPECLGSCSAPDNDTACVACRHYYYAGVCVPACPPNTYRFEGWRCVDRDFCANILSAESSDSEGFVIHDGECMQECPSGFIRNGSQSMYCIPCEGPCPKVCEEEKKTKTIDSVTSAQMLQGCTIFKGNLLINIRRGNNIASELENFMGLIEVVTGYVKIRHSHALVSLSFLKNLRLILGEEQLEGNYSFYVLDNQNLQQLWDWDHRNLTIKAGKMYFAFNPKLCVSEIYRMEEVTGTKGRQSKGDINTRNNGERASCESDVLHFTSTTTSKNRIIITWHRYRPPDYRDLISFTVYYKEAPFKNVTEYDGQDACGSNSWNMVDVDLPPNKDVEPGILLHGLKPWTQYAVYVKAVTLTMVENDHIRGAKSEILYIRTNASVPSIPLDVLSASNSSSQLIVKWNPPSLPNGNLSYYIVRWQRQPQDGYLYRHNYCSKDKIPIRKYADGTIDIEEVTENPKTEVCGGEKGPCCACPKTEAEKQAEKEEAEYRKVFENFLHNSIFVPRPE
Insulin-like growth factor 1 receptor (Homo sapiens), sequence (P08069 741-1367 limits assumed): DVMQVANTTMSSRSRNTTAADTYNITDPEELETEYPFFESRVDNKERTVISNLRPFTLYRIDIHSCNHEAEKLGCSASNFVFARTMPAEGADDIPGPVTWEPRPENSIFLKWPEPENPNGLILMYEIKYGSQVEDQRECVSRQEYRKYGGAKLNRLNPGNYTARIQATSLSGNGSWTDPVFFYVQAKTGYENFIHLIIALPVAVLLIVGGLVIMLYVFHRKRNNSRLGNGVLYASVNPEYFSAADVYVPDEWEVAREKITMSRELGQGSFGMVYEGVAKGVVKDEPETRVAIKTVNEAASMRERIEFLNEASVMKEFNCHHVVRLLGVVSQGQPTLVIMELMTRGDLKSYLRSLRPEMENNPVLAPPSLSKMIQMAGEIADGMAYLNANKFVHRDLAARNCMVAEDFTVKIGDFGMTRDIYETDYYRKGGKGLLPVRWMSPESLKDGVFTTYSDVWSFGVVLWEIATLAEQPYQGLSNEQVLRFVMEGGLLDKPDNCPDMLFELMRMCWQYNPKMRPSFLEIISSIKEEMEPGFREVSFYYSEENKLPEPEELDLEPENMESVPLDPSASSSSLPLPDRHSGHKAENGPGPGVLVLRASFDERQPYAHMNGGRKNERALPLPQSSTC
Vascular endothelial growth factor receptor 1 (Homo sapiens), sequence (P17948 whole entry): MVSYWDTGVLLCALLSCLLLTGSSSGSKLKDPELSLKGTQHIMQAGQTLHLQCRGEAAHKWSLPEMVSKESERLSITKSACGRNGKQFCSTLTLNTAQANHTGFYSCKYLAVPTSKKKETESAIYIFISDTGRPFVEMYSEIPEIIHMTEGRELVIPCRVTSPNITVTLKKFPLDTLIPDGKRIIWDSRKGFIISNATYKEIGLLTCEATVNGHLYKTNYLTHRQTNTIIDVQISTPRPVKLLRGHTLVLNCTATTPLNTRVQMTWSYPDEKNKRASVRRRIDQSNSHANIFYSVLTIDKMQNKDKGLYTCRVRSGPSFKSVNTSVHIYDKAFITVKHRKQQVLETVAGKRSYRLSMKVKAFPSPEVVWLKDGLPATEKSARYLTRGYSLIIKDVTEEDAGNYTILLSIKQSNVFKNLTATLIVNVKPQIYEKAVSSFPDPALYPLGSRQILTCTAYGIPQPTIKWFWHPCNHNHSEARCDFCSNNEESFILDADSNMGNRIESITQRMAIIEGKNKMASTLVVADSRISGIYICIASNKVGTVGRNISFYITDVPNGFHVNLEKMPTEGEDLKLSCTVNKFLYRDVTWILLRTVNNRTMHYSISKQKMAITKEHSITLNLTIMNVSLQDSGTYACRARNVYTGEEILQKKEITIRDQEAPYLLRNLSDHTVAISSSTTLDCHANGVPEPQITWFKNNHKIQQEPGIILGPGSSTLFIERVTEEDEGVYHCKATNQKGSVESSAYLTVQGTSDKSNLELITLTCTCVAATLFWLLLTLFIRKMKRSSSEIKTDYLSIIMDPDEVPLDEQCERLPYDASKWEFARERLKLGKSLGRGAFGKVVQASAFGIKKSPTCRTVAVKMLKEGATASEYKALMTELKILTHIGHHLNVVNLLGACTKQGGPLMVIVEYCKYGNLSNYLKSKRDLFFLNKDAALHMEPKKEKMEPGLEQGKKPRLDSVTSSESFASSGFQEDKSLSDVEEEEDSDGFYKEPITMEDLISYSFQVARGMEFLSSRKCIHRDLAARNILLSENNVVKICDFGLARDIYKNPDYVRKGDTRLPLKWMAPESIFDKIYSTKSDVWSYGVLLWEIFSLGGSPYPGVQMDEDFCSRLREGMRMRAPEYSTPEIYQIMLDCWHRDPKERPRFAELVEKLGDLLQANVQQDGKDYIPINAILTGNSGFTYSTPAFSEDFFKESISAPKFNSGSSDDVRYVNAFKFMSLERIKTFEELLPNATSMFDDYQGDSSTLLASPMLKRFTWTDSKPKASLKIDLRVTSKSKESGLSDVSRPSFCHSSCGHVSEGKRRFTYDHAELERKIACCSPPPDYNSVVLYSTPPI
Serine/threonine-protein kinase PAK 3, sequence (O75914 whole entry, looked up, canonical isoform): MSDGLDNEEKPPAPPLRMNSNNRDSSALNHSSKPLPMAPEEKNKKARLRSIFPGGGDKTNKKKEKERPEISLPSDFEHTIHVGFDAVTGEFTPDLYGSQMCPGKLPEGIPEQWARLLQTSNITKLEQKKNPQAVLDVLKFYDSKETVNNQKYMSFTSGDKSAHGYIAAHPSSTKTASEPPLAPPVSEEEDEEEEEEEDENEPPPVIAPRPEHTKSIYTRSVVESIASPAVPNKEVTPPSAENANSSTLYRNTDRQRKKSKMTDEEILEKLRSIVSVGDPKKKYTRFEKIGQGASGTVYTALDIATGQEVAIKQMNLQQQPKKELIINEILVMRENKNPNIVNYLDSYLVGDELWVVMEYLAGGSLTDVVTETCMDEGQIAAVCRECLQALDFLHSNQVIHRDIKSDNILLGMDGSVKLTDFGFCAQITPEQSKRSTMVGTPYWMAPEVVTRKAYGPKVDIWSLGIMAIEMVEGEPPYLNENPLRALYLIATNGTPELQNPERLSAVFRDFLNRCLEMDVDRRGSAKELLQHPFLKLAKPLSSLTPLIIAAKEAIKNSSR
Tyrosine-protein kinase Lyn (Homo sapiens), sequence (P07948 2-512 limits assumed): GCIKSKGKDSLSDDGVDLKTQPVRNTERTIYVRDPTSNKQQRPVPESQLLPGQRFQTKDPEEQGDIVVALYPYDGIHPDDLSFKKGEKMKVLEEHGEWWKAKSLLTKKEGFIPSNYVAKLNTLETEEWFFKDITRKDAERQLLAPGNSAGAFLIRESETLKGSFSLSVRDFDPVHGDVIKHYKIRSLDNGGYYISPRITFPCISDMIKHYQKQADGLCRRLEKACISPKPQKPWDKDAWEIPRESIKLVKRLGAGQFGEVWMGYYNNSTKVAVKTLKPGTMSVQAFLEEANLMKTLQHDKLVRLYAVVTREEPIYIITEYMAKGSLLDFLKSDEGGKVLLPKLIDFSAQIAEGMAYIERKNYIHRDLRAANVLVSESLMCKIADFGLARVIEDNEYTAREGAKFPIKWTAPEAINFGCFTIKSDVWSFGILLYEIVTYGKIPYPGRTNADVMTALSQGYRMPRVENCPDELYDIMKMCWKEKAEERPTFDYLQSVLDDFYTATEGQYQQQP
Tyrosine-protein kinase BTK (Homo sapiens), sequence (Q06187 whole entry): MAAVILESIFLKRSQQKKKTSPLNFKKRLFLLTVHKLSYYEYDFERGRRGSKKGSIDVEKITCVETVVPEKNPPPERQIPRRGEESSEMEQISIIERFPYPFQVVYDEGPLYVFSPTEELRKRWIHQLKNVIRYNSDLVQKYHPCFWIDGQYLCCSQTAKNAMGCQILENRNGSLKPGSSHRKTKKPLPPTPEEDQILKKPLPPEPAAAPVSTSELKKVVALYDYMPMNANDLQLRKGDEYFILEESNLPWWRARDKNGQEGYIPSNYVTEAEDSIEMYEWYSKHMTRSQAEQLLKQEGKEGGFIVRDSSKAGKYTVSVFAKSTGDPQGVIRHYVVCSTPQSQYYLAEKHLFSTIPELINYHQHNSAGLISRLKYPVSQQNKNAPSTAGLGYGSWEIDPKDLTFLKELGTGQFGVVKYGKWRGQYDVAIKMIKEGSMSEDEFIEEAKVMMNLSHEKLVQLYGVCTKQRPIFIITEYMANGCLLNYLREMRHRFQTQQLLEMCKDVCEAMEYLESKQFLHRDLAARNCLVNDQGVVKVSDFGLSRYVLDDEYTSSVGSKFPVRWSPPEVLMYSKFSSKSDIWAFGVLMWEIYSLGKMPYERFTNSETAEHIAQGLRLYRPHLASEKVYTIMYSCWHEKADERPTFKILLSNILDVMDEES

## COCCNc1nc2ccc(C#CC3(O)CCCCC3)cc2n1-c1ccnc(N)n1
[1]
  inhibition: 8.4%
[2]
  inhibition: 3.3%
[3]
  inhibition: 1.9%
[4]
  inhibition: -2.4%
[5]
  inhibition: 0.8%
[6]
  inhibition: 2.9%
[7]
  inhibition: 4.3%
[8]
  inhibition: 1.1%
[9]
  inhibition: 4.3%
[10]
  inhibition: -2.7%
[11]
  inhibition: 0%
[12]
  inhibition: 6.6%
[13]
  inhibition: 0.8%
[14]
  inhibition: 9.8%
[15]
  inhibition: 4.1%
[16]
  inhibition: 3.6%
[17]
  inhibition: -2%
[18]
  inhibition: 11.7%
[19]
  inhibition: -6%
[20]
  inhibition: 1.9%
[21]
  inhibition: 2.8%
[22]
  inhibition: 2.5%
[23]
  inhibition: 4.8%
[24]
  inhibition: -6.6%
[25]
  inhibition: 9.8%
[26]
  inhibition: 4.4%
[27]
  inhibition: 9.9%
[28]
  inhibition: 8.1%
[29]
  inhibition: -5%
[30]
  inhibition: -2.8%
[31]
  inhibition: -3%
[32]
  inhibition: 1.4%
[33]
  inhibition: -9.6%
[34]
  inhibition: 3.4%
[35]
  inhibition: 9.8%

## CN1CCc2cc(-c3cnc4[nH]cc(C(=O)c5ccccc5Cl)c4c3)ccc2C1
[2]
  inhibition: 92.6%
[6]
  inhibition: 6.5%
[7]
  inhibition: 37.1%
[8]
  inhibition: 3.3%
[13]
  inhibition: 86.3%
[15]
  inhibition: 51%
[36]
  inhibition: 99.8%
[19]
  inhibition: 18.6%
[37]
  inhibition: 5%
[38]
  inhibition: 4.3%
[39]
  inhibition: 38.3%
[34]
  inhibition: 50.3%
